In patent US20180193412A1, “Method of In Vivo Treatment” (Hexima Limited, priority 2015, published 2018):

Assays:
E. coli = assay type: cell-based, Escherichia coli
Method: (§1) A single E. coli or B. subtilis colony was used to inoculate 5 ml of Luria-Bertani media and grown overnight at 37° C. The following day, the optical density of the culture was measured and the bacteria diluted to an optical density at 600 nm (OD600) of 0.01 in Mueller-Hinton Broth. Diluted E. coli or B. subtilis were added to 96-well plates with defensins at concentrations of 20 μM, 10 μM, 5 μM, 2.5 μM, 1.25 μM, 0.625 μM or 0.3125 μM. Plates were read at OD595 to obtain time zero data points. Plates were incubated at 37° C. for 18 hours before reading again at OD595 to assess the amount of bacterial growth.

T. albicans = assay: Inhibition of growth of C. albicans by plant defensins, Example 1 (microtitre A595 antifungal assay); assay type: cell-based; conditions: Table 3; ½ strength PDB, 30° C., A595
Method: (§2) The inhibitory effects of the plant defensins on the growth of Trichophyton rubrum, T. interdigitale, Microsporum fulvum and C. albicans (all obtained from the National Mycology Reference Centre, South Australia Pathology at the Women's and Children's Hospital, Adelaide, Australia) are measured essentially as described by Broekaert et al. (1990) FEMS Microbiol Lett 69:55-59.
(§3) Spores of T. rubrum, T. interdigitale and M. fulvum are isolated from sporulating fungus growing on ½ strength Sabouraud dextrose agar. Spores were removed from the plates by the addition of ½ strength potato dextrose broth (PDB). C. albicans cells are grown in Yeast Peptone Broth (YPD) for 16 h. Spore and cell concentrations are measured using a hemocytometer.
(§4) Antifungal assays are conducted in 96 well microtitre plates essentially as herein described. Wells are loaded with 20 μL of filter sterilized (0.22 Ξ m syringe filter, Millipore) defensin (10× stock for each final concentration) or water and 80 μL of 5×10^4 spores/mL (T. rubrum, T. interdigitale, M. fulvum) or 5,000 cells/mL (C. albicans) in ½ strength PDB. The plates are incubated at 30° C. Fungal growth is assayed by measuring optical density at 595 nm (A595) using a microtitre plate reader (SpectraMax Pro M2; Molecular Devices. Growth is allowed to proceed until the optical density (OD) of the fungus in the absence of any test defensin reached an OD of 0.2. Each test is performed in duplicate.

[1] = tested on: Trichophyton rubrum, T. interdigitale, Microsporum fulvum and C. albicans; assay: Inhibition assays of Example 1, summary across the range of fungal pathogens; assay type: cell-based; conditions: summary of Table 3, at the concentrations tested
Method: as §2, §3, §4

[2] = tested on: clinical isolates of T. rubrum (14-01, 14-02, 14-03, 13-04); assay: Inhibition of growth of clinical isolates of T. rubrum (FIG. 2); assay type: cell-based, Trichophyton rubrum; conditions: all four clinical isolates
Method: (§5) FIG. 2(A) is a graphical representations showing the effect of the plant defensins NaD1 (dashed line) and HXL008 (solid line) on the growth of clinical isolate 14-01 of Trichophyton rubrum in vitro. Fungal growth was measured by the increase in optical density at 595 nm (A595) achieved 72 hours after inoculation of the growth medium and is plotted as a percentage of growth relative to a no-protein control (vertical axis) versus protein concentration (μg/mL, horizontal axis).
as §5, with “2(B)” for “2(A)”, “representation” for “representations”, “14-02” for “14-01”, “axis). […]” for “axis).”
Antifungal assays are conducted in 96 well microtitre plates essentially as herein described. […] Fungal growth is assayed by measuring optical density at 595 nm (A595) using a microtitre plate reader (SpectraMax Pro M2; Molecular Devices. Growth is allowed to proceed until the optical density (OD) of the fungus in the absence of any test defensin reached an OD of 0.2. Each test is performed in duplicate.

B. subtilis = assay: Inhibition of the growth of Bacillus subtilis (OD595, 18 hours); assay type: cell-based; conditions: at the concentrations tested (0.3125-20 μM)
Method: as §1

M. fulvum = assay: Inhibition of growth of Microsporum fulvum by plant defensins (microtitre A595 antifungal assay); assay type: cell-based; conditions: ½ strength PDB, 30° C., A595
Method: as §2, §3, §4

[3] = tested on: clinical isolates of T. rubrum; assay: Cell survival assay for clinical isolates of T. rubrum (plating on agar after defensin treatment, FIG. 3); assay type: cell-based, Trichophyton rubrum
Method: FIG. 3(A) is a photographic representations of surviving colonies of T. rubrum clinical isolate 14-01 grown on agar plates after treatment with 100 μM HXL008 for 72 h.
FIG. 3(B) is a photographic representation of surviving colonies of T. rubrum clinical isolate 14-02 grown on agar plates after treatment with 100 μM HXL008 for 72 h.
FIG. 3(C) is a photographic representation of surviving colonies of T. rubrum clinical isolate 14-03 grown on agar plates after treatment with 100 μM HXL008 for 72 h.
FIG. 3(D) is a photographic representation of surviving colonies of T. rubrum clinical isolate 13-04 grown on agar plates after treatment with 100 μM HXL008 for 72 h.
After incubation for 72 h, the media from wells containing clinical isolates of T. rubrum incubated with 100 […] HXL008 was plated onto fresh Sabouraud dextrose agar. Plates were incubated at 30° C. for 5 days to allow colonies to develop before being photographed.

T. rubrum = assay: Inhibition of growth of Trichophyton rubrum by plant defensins (microtitre A595 antifungal assay); assay type: cell-based; conditions: ½ strength PDB, 30° C.
Method: as §2, §3, §4

HXL008: Class I plant defensin from Picramnia pentandra (KVCTKPSKFFKGLCGTDGACTTACRKEGLHSGYCQLKGFLNSVCVCRKHC; HXL008 Picramnia pentandra)
IC50 (E. coli; Mueller-Hinton Broth, 37° C., 18 hours, up to 20 μM, read-out: IC50 against E. coli): > 20 µM | Inhibition of growth of E. coli (E. coli; at the concentrations tested (0.3125-20 μM)): did not inhibit the growth | IC50 against T. albicans (T. albicans): 20 µg/mL | Activity across the range of fungal pathogens [1]: most effective | Growth inhibition of T. rubrum clinical isolates compared with NaD1 [2]: inhibited growth at a lower concentration than NaD1 | Inhibition of growth of B. subtilis (B. subtilis): did not inhibit the growth | IC50 against M. fulvum (M. fulvum): 7 µg/mL | Surviving colonies on agar plates after incubation with defensin ([3]; 100 µg/mL HXL008 for 72 h, plated, 30° C. for 5 days): 1-3 colonies | Cell survival of T. rubrum clinical isolates ([3]; incubated with HXL008 for 72 h): almost all the cells were dead | IC50 against T. rubrum (T. rubrum): 3 µg/mL
